Reference: ChEMBL document CHEMBL3400056, “Novel thiazolo[3,2-b]-1,2,4-triazoles derived from naproxen with analgesic/anti-inflammatory properties: Synthesis, biological evaluation and molecular modeling studies” (Bioorg Med Chem, 2015)

System: Mus musculus
Assay: Analgesic activity in Swiss albino mouse assessed as latancy of withdrawing tail at 50 mg/kg, po measured after 2 hrs by tail flick test relative to control
Type: functional
Details: not given

Structure (SMILES)	MPE
COc1ccc2cc(C(C)c3nc4s/c(=C\c5cccc6ccccc56)c(=O)n4n3)ccc2c1 (configuration not stated)	51.9%
COc1ccc2cc(C(C)c3nc4s/c(=C\c5ccc(C)s5)c(=O)n4n3)ccc2c1 (configuration not stated)	32.8%
COc1ccc2c(c1)c(CC(=O)O)c(C)n2C(=O)c1ccc(Cl)cc1 [INDOMETHACIN]	46.9%

System: Mus musculus
Assay: Analgesic activity in Swiss albino mouse assessed as latancy of withdrawing tail at 100 mg/kg, po measured after 2 hrs by tail flick test relative to control
Type: functional
Details: not given

Structure (SMILES)	MPE
COc1ccc2cc(C(C)c3nc4s/c(=C\c5cccc6ccccc56)c(=O)n4n3)ccc2c1 (configuration not stated)	53.8%
COc1ccc2cc(C(C)c3nc4s/c(=C\c5ccc(C)s5)c(=O)n4n3)ccc2c1 (configuration not stated)	43.5%
COc1ccc2c(c1)c(CC(=O)O)c(C)n2C(=O)c1ccc(Cl)cc1 [INDOMETHACIN]	46.2%

System: Mus musculus
Assay: Analgesic activity in Swiss albino mouse assessed as time of licking paws at 50 mg/kg, po measured after 2 hrs by tail flick test relative to control
Type: functional
Details: not given

Structure (SMILES)	MPE
COc1ccc2cc(C(C)c3nc4s/c(=C\c5cccc6ccccc56)c(=O)n4n3)ccc2c1 (configuration not stated)	39.7%
COc1ccc2cc(C(C)c3nc4s/c(=C\c5ccc(C)s5)c(=O)n4n3)ccc2c1 (configuration not stated)	34.9%
COc1ccc2c(c1)c(CC(=O)O)c(C)n2C(=O)c1ccc(Cl)cc1 [INDOMETHACIN]	35.2%

System: Mus musculus
Assay: Analgesic activity in Swiss albino mouse assessed as time of licking paws at 100 mg/kg, po measured after 2 hrs by tail flick test relative to control
Type: functional
Details: not given

Structure (SMILES)	MPE
COc1ccc2cc(C(C)c3nc4s/c(=C\c5cccc6ccccc56)c(=O)n4n3)ccc2c1 (configuration not stated)	36.8%
COc1ccc2cc(C(C)c3nc4s/c(=C\c5ccc(C)s5)c(=O)n4n3)ccc2c1 (configuration not stated)	36%
COc1ccc2c(c1)c(CC(=O)O)c(C)n2C(=O)c1ccc(Cl)cc1 [INDOMETHACIN]	40.5%

System: Mus musculus
Assay: Antiinflammatory activity in Swiss albino mouse assessed as inhibition of carrageenan-induced paw edema at 50 mg/kg, po administered 1 hr prior to carrageenan challenge measured after 2 hrs relative to control
Type: functional
Design: scale not given: the % may be the effect or the level left
Details: not given

Structure (SMILES)	Activity
COc1ccc2cc(C(C)c3nc4s/c(=C\c5cccc6ccccc56)c(=O)n4n3)ccc2c1 (configuration not stated)	43%
COc1ccc2cc(C(C)c3nc4s/c(=C\c5ccc(C)s5)c(=O)n4n3)ccc2c1 (configuration not stated)	36.7%
COc1ccc2c(c1)c(CC(=O)O)c(C)n2C(=O)c1ccc(Cl)cc1 [INDOMETHACIN]	46.8%

System: Mus musculus
Assay: Antiinflammatory activity in Swiss albino mouse assessed as inhibition of carrageenan-induced paw edema at 100 mg/kg, po administered 1 hr prior to carrageenan challenge measured after 2 hrs relative to control
Type: functional
Design: scale not given: the % may be the effect or the level left
Details: not given

Structure (SMILES)	Activity
COc1ccc2cc(C(C)c3nc4s/c(=C\c5cccc6ccccc56)c(=O)n4n3)ccc2c1 (configuration not stated)	39.6%
COc1ccc2cc(C(C)c3nc4s/c(=C\c5ccc(C)s5)c(=O)n4n3)ccc2c1 (configuration not stated)	31.1%
COc1ccc2c(c1)c(CC(=O)O)c(C)n2C(=O)c1ccc(Cl)cc1 [INDOMETHACIN]	50.9%

Biological target: T1, Prostaglandin G/H synthase 1 (Ovis aries, UniProt P05979)
T1 sequence (P05979 whole entry): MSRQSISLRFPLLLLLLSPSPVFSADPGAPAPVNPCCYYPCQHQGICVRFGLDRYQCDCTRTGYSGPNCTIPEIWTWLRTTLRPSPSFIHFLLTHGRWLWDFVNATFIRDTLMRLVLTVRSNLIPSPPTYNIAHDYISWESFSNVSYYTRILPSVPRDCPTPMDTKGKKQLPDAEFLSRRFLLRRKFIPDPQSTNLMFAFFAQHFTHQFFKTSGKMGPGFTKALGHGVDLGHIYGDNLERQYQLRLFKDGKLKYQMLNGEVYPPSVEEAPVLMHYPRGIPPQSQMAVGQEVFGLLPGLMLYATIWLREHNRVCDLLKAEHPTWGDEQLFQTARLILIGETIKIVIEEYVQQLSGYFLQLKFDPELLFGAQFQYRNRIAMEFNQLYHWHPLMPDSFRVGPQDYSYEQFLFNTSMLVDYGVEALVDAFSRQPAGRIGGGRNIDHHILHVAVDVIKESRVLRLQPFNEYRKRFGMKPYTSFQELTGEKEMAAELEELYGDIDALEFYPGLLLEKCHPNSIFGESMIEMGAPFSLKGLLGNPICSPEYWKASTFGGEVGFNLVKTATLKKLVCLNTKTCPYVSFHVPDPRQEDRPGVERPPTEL
Assay: Inhibition of ovine recombinant COX-1 using […] as substrate incubated for 10 mins prior to arachidonic acid addition measured after 2 mins by EIA
Details: not given

Structure (SMILES)	IC50
COc1ccc2cc(C(C)c3nc4s/c(=C\c5cccc6ccccc56)c(=O)n4n3)ccc2c1 (configuration not stated)	85.6 µM
COc1ccc2cc(C(C)c3nc4s/c(=C\c5ccc(C)s5)c(=O)n4n3)ccc2c1 (configuration not stated)	> 100 µM

Biological target: T2, Prostaglandin G/H synthase 2 (Homo sapiens, UniProt P35354)
T2 sequence (P35354 whole entry): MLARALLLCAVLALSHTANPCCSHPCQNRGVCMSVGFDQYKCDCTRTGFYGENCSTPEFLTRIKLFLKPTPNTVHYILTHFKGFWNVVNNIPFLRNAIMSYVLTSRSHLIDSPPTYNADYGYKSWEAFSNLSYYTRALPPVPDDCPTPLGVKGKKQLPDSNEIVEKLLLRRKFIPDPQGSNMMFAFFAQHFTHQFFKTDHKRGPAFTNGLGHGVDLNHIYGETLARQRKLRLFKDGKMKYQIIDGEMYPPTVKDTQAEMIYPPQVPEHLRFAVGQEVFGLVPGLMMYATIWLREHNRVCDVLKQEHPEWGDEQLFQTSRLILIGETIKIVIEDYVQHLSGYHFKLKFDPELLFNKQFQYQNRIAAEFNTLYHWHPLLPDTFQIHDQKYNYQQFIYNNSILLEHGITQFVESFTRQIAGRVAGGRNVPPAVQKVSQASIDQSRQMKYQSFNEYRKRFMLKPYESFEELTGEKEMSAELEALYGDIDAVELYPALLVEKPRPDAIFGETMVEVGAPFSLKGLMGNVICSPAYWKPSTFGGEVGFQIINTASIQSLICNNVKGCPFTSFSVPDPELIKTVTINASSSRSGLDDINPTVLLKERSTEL
Assay: Inhibition of human recombinant COX-2 using […] as substrate incubated for 10 mins prior to arachidonic acid addition measured after 2 mins by EIA
Details: not given

Structure (SMILES)	IC50
COc1ccc2cc(C(C)c3nc4s/c(=C\c5cccc6ccccc56)c(=O)n4n3)ccc2c1 (configuration not stated)	68.2 µM
COc1ccc2cc(C(C)c3nc4s/c(=C\c5ccc(C)s5)c(=O)n4n3)ccc2c1 (configuration not stated)	20.5 µM

System: not listed separately
Assay: Selectivity ratio of IC50 for ovine recombinant COX-1 to IC50 for human recombinant COX-2
Details: not given

Structure (SMILES)	Ratio IC50
COc1ccc2cc(C(C)c3nc4s/c(=C\c5cccc6ccccc56)c(=O)n4n3)ccc2c1 (configuration not stated)	1.25
COc1ccc2cc(C(C)c3nc4s/c(=C\c5ccc(C)s5)c(=O)n4n3)ccc2c1 (configuration not stated)	> 4.87

System: Mus musculus
Assay: Gastrointestinal toxicity in Swiss albino mouse assessed as ulcer index at 50 mg/kg, po measured after 2 hrs
Type: organism-based
Design: dose 50 mg/kg, route oral
Details: in vivo

Structure (SMILES)	UI
COc1ccc2cc(C(C)c3nc4s/c(=C\c5cccc6ccccc56)c(=O)n4n3)ccc2c1 (configuration not stated)	2.6
COc1ccc2cc(C(C)c3nc4s/c(=C\c5ccc(C)s5)c(=O)n4n3)ccc2c1 (configuration not stated)	1.8
COc1ccc2c(c1)c(CC(=O)O)c(C)n2C(=O)c1ccc(Cl)cc1 [INDOMETHACIN]	4

System: Mus musculus
Assay: Gastrointestinal toxicity in Swiss albino mouse assessed as ulcer index at 100 mg/kg, po measured after 2 hrs
Type: organism-based
Design: dose 100 mg/kg, route oral
Details: in vivo

Structure (SMILES)	UI
COc1ccc2cc(C(C)c3nc4s/c(=C\c5cccc6ccccc56)c(=O)n4n3)ccc2c1 (configuration not stated)	2.2
COc1ccc2cc(C(C)c3nc4s/c(=C\c5ccc(C)s5)c(=O)n4n3)ccc2c1 (configuration not stated)	2.3
COc1ccc2c(c1)c(CC(=O)O)c(C)n2C(=O)c1ccc(Cl)cc1 [INDOMETHACIN]	5.1

System: Mus musculus
Assay: Acute toxicity in Swiss albino mouse assessed as mortality at 50 to 100 mg/kg, po measured after 6 hrs to 14 days
Type: organism-based
Design: dose 50-100 mg/kg, route oral
Details: in vivo

Structure (SMILES)	Activity
COc1ccc2cc(C(C)c3nc4s/c(=C\c5cccc6ccccc56)c(=O)n4n3)ccc2c1 (configuration not stated)	Non-toxic
COc1ccc2cc(C(C)c3nc4s/c(=C\c5ccc(C)s5)c(=O)n4n3)ccc2c1 (configuration not stated)	Non-toxic

System: Mus musculus
Assay: Acute toxicity in Swiss albino mouse assessed as weight loss at 50 to 100 mg/kg, po measured up to 14 days
Type: organism-based
Design: dose 50-100 mg/kg, route oral
Details: in vivo, 336 h

Structure (SMILES)	Activity
COc1ccc2cc(C(C)c3nc4s/c(=C\c5cccc6ccccc56)c(=O)n4n3)ccc2c1 (configuration not stated)	Non-toxic
COc1ccc2cc(C(C)c3nc4s/c(=C\c5ccc(C)s5)c(=O)n4n3)ccc2c1 (configuration not stated)	Non-toxic

System: Mus musculus
Assay: Acute toxicity in Swiss albino mouse assessed as behavioral changes at 50 to 100 mg/kg, po measured up to 14 days
Type: organism-based
Design: dose 50-100 mg/kg, route oral
Details: in vivo, 336 h

Structure (SMILES)	Activity
COc1ccc2cc(C(C)c3nc4s/c(=C\c5cccc6ccccc56)c(=O)n4n3)ccc2c1 (configuration not stated)	Non-toxic
COc1ccc2cc(C(C)c3nc4s/c(=C\c5ccc(C)s5)c(=O)n4n3)ccc2c1 (configuration not stated)	Non-toxic

System: not listed separately
Assay: Acute toxicity in Swiss albino mouse assessed as mortality at 50 mg/kg, po after 12 hrs
Type: organism-based
Design: dose 50 mg/kg, route oral
Details: in vivo

Structure (SMILES)	mortality at 12 h
COc1ccc2c(c1)c(CC(=O)O)c(C)n2C(=O)c1ccc(Cl)cc1 [INDOMETHACIN]	71%
